Results: US20230338270A1, “COSMETIC COMPOSITION FOR SKIN IMPROVEMENT COMPRISING, AS ACTIVE INGREDIENTS, POLYSACCHARIDES, YEAST EXTRACT, AND STRAIN FERMENTATION PRODUCT WITH CHARACTERISTICS OF PROBIOTICS” (LG HOUSEHOLD & HEALTH CARE LTD., priority 2020, published 2023)

Experiments:
Assay type in all cases: cell-based
[1] = test system: Staphylococcus epidermidis (S. epidermidis); assay: Effect on growth of beneficial bacteria (optical density after culture in TSB); details: for Effect on increase in beneficial bacteria (in words): Table 7; for Beneficial bacteria (S. epidermidis), average degree of increase or decrease compared to the untreated group: inoculated at a concentration of 1%, rotary culture 37° C. 16 hours
[2] = test system: Staphylococcus aureus (S. aureus); assay: Effect on growth of harmful bacteria (optical density after culture in TSB); details: for Effect on reduction in harmful bacteria (in words): Table 7; for Harmful bacteria (S. aureus), average degree of increase or decrease compared to the untreated group: inoculated at a concentration of 1%, rotary culture 37° C. 16 hours
human skin fibroblasts = assay: Collagen biosynthesis rate (procollagen type I C-peptide EIA kit); details: 10 ng/mL, 48 hours, control group
Description: The effect of the complexes of Preparation Examples on the collagen biosynthesis rate in the human skin fibroblasts was identified. Skin fibroblasts were cultured in complete DMEM culture at 37° C. in the presence of 5% carbon dioxide for 72 hours. After seeding in a 24-well plate, culture was performed at 37° C. in the presence of 5% carbon dioxide for 24 hours. After treating the complexes according to Preparation Examples and culturing at 37° C. in the presence of 5% carbon dioxide for 48 hours, only the supernatant was separated, and the collagen synthesis effect was observed by absorbance using a procollagen type I C-peptide (PIP) EIA kit.
Collagen biosynthesis increase rate (%) = {(Absorbance of complex treated group -Absorbance of untreated group) / Absorbance of untreated group} × 100
10 ng/mL of TGF-β, a cytokine, was used as a control group.

[3] = test system: mouse Raw 264.7 cell line; assay: Suppression of inflammatory factor NO (Griess reagent, LPS-treated cells); details: 20 µg/mL, 1 µg/mL LPS, 24 hours, control group
Description: In order to identify the effect of the complexes of Preparation Examples on the production of NO as an inflammatory factor in cells, a mouse Raw 264.7 cell line was used, and a culture medium whose final pH was adjusted to 8.5 through addition of NaOH to Complete RPMI (RPMI:FBS:antibiotic = 10:1:0.1) was used as an initial culture medium.
When the Raw 264.7 cells appeared at the top of the culture medium after culture at 37° C. in the presence of 5% carbon dioxide for 24 hours, the cells were seeded in a 24-well plate in which a DMEM culture was prepared, followed by culture at 37° C. in the presence of 5% carbon dioxide for 24 hours. Thereafter, treatment was performed after diluting the complexes according to Preparation Examples 1 to 7 by the following concentrations while replacing the medium with a serum-free DMEM culture medium, followed by additional treatment of 1 µg/mL of LPS. After culture at 37° C. in the presence of 5% carbon dioxide for 24 hours, the supernatant was mixed with Griess reagent (Sigma-Aldrich) in a ratio of 1:1 to evaluate the ability to inhibit NO production with absorbance, and the average value was shown in Table 9 below.
NO production inhibition ability (%) = {1 - (NO production when compound is added / NO production in untreated group)} × 100
20 µg/mL of L-NMMA1 (N^G-Methyl-L-arginine acetate salt), an NO inhibitor, was used as a control group.

[4] = test system: human dermal papilla cells; assay: Activity of dermal papilla cells (CCK-8, optical density at 450 nm); details: 1 µM, control group
Description: In order to identify the effect of the complexes of Preparation Examples on dermal papilla cells, human dermal papilla cells (Promocell, C-12071) in the 4-8 passage were used as a cell line, and follicle dermal papilla cell growth media (Promocell, C-26501) were used as an initial culture medium.
Cells were seeded at a level of 3,000 to 6,000 cells per well in a 96-well plate, and cultured in an incubator at 37° C. in the presence of 5% carbon dioxide for 24 hours. Thereafter, the culture medium was replaced with DMEM medium supplemented with 0.1% fetal bovine serum (FBS) and cultured in an incubator at 37° C. in the presence of 5% carbon dioxide for 24 hours. Thereafter, the culture medium was replaced with DMEM supplemented with 0.1% FBS treated with the complexes according to Preparation Examples 1 to 7 by each concentration, followed by culture in an incubator at 37° C. in the presence of 5% carbon dioxide for 48 hours. After treating 10 µl of CCK-8 solutions per well, culture was performed at 37° C. for 1 hour, and optical density was measured at 450 nm.
The difference between the optical density measurement value and the initial measurement value after 48 hours for each well was standardized by dividing the difference by the initial measurement value for evaluation, and the average value was shown in Table 8 below. 1 µM minoxidil was treated as a control group. […]

Maltodextrin
Effect on increase in beneficial bacteria (in words) [1]: no significant effect
Beneficial bacteria (S. epidermidis), average degree of increase or decrease compared to the untreated group [1]: 0.14%
Effect on reduction in harmful bacteria (in words) [2]: no significant effect
Harmful bacteria (S. aureus), average degree of increase or decrease compared to the untreated group [2]: 1.43%

TGF-β
Collagen biosynthesis increase rate, Average (human skin fibroblasts): 36.6%

CC(=O)O.CNC(=N)NCCC[C@H](N)C(=O)O [L-NMMA1, N^G-Methyl-L-arginine acetate salt]
NO production inhibition ability, Average [3]: 52.1%

Inulin
Effect on increase in beneficial bacteria (in words) [1]: no significant effect
Beneficial bacteria (S. epidermidis), average degree of increase or decrease compared to the untreated group [1]: 0.29%
Effect on reduction in harmful bacteria (in words) [2]: no significant effect
Harmful bacteria (S. aureus), average degree of increase or decrease compared to the untreated group [2]: -0.84%

Nc1cc(N2CCCCC2)nc(N)[n+]1[O-] [Minoxidil, minoxidil]
Dermal papilla cell activity, Average (optical density difference after 48 hours divided by initial value) [4]: 44.2

Beta-glucan
Effect on increase in beneficial bacteria (in words) [1]: no significant effect
Beneficial bacteria (S. epidermidis), average degree of increase or decrease compared to the untreated group [1]: -0.26%
Effect on reduction in harmful bacteria (in words) [2]: no significant effect
Harmful bacteria (S. aureus), average degree of increase or decrease compared to the untreated group [2]: -0.78%
